Assay results reported in patent publication US7652021B2, “Compounds useful for DPP-IV enzyme inhibition” (Sanofi-Aventis, priority 2003, dated 2010).
Counter-ions that a name gives are not always drawn.

Columns and labels:
[1] = biological target: T1, DPP-IV enzyme (solubilized crude extractum from CaCo/Tc-7 cells) (Homo sapiens, UniProt P27487); assay: DPP-IV enzyme inhibitory activity, fluorometric H-Gly-Pro-AMC assay; assay type: biochemical; conditions: H-Gly-Pro-AMC substrate 250 μM final; 60 min preincubation at 37° C.; 30 min reaction at 37° C.; Tris-HCl pH=7.5
T1 construct: solubilized crude extractum from CaCo/Tc-7 cells; endogenous in cells; host or cells: CaCo/Tc-7 cells (solubilized crude extract)
T1 sequence (P27487 whole entry): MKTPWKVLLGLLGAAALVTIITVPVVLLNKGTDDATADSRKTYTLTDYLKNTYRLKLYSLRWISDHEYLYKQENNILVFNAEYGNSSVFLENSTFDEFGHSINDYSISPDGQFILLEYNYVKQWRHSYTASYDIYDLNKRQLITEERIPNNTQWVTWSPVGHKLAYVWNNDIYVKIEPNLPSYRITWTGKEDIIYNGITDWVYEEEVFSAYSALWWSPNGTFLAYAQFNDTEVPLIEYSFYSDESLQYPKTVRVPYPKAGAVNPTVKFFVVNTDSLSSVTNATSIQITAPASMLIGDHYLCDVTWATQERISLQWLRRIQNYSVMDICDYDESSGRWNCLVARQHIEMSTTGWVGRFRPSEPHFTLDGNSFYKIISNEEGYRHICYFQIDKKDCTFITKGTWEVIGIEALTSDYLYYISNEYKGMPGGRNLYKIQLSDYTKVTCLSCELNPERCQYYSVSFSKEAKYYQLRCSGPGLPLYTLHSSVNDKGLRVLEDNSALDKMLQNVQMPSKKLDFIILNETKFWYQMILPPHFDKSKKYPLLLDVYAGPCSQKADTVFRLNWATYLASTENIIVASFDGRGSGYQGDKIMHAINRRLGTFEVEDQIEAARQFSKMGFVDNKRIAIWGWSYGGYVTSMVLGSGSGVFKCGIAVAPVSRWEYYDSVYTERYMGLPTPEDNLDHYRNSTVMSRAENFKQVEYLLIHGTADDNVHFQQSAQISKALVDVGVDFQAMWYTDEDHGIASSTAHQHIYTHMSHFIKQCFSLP
Method: DPP-IV enzyme inhibitory activties of the compounds with the general formula (I) were determined by the following method: […]
Applied Conditions of the Assay:
The reaction of the DPP-IV enzyme and the H-Gly-Pro-AMC substrate is recorded by the liberation of AMC (7-amino-4-methylcoumarin) at 37° C. in 100 mM Tris-HCl, pH=7.5 (assay buffer). Standard curve of AMC is linear up to 31.25 μM concentration, therefore we used the relative fluorescence unit (RFU) of the AMC formed. It is detected using 360 nm excitation and 465 emmission filters (integration time 30 μs, Gain 25, No. of Flashes 50) by Tecan Spectrofluor Plus plate reader. Under these conditions enzyme reaction is linear for at least 30 min, and the enzyme dependence is linear up to 2.5 μg protein (up to 700 RFU). Using 1-0.8 μg of extracted protein Km for H-Gly-Pro-AMC is 50 μM. Higher than 500 μM substrate concentration caused fluorescent detection problems (inner filter effect) that can be solved by dilution of the samples.
The assay is designed to detect as efficiently as possible the active inhibitors using a 60 min preincubation time at 37° C. The assay is conducted by adding 0.8-1 μg protein extract in 10 μl enzyme sulution (using assay buffer: 100 mM Tris-HCl, pH=7.5) to the wells containing the test compounds in 10 μl volume and the 55 μl assay buffer (65 μl assay buffer in the case of controlls). After the preincubation period, the reaction is started by the addition of 25 μlmM H-Gly-Pro-AMC substrate solution (250 μM final concentration). The final test volume is 100 μl and the test solution contains 1% DMSO coming from the test compounds solution. Reaction time is 30 min at 37° C., and the reaction is stopped by adding 300 μl 1M Na-acetate buffer, pH=4.2. The fluorescence (RFU) of AMC formed is detected using 360 nm excitation and 465 emission filters in Tecan spectrofluor Plus plate reader (30 μs integration time, Gain 25 No. of Flashes 50). Inhibition % are calculated using the RFU of control and RFU of blank.

Compound	melting point	IC50 [1]
N#C[C@@H]1CC(F)(F)CN1C(=O)CNC1C2CCC1CN(c1ncccn1)C2 (stereo partly drawn)	50 to 52 °C	–
Cl.Cl.N#C[C@@H]1CC(F)(F)CN1C(=O)CNC1C2CCC1CN(c1ncccn1)C2 (stereo partly drawn)	> 300 °C	–
CC1(NCC(=O)N2CC(F)(F)C[C@H]2C#N)CC2CCC(C1)N2c1ncccn1.Cl.Cl (stereo partly drawn)	169 to 172 °C	–
N#C[C@H]1COCN1C(=O)CNC12CC3CC(C1)CC(Nc1ncccn1)(C3)C2 (as salt: hydrochloride) [Example 9, (4S)-3-{N-[3-(pyrimidin-2-ylamino)-1-adamantyl]glycyl}-1,3-oxazolidine-4-carbonitrile]	205 to 207 °C	–
N#Cc1ccc(CNC23CC4CC(CC(NCC(=O)N5CC(F)(F)C[C@H]5C#N)(C4)C2)C3)cc1 (as salt: hydrochloride) [Example 27, (2S)-1-(N-{3-[(4-cyanobenzyl)amino]-1-adamantyl}glycyl)-4,4-difluoropyrrolidine-2-carbonitrile]	226 to 231 °C	–
N#C[C@@H]1CCCN1C(=O)CNC1C2CCC1CN(c1ncccn1)C2 (stereo partly drawn) (as salt: hydrochloride) [Example 40, (2S)-1-[N-(3-pyrimidin-2-yl-3-azabicyclo[3.2.1]oct-8-yl)glycyl]pyrrolidine-2-carbonitrile]	149 to 152 °C	–
N#C[C@H]1COCN1C(=O)CNC12CC3CC(C1)CC(Nc1ncccn1)(C3)C2 [Example 9, (4S)-3-{N-[3-(pyrimidin-2-ylamino)-1-adamantyl]glycyl}-1,3-oxazolidine-4-carbonitrile]	–	0.021 µM
N#Cc1ccc(CNC23CC4CC(CC(NCC(=O)N5CC(F)(F)C[C@H]5C#N)(C4)C2)C3)cc1 [Example 27, (2S)-1-(N-{3-[(4-cyanobenzyl)amino]-1-adamantyl}glycyl)-4,4-difluoropyrrolidine-2-carbonitrile]	–	0.016 µM
N#C[C@@H]1CCCN1C(=O)CNC1C2CCC1CN(c1ncccn1)C2 (stereo partly drawn) [Example 40, (2S)-1-[N-(3-pyrimidin-2-yl-3-azabicyclo[3.2.1]oct-8-yl)glycyl]pyrrolidine-2-carbonitrile]	–	0.03 µM
